Molecules are shown by their SMILES.

What all share (format): cell-based
In experiment [1] the test system is 3T3-L1 adipocytes. The experiment is described as follows: Oxygen consumption of 3T3-L1 adipocytes. As for the experimental part:
3T3-L1 were grown in Dulbecco's Modified Eagle's Medium (Gib-co/Invitrogen, Carlsbad, Calif., USA) with 4.5 g/l glucose and 10% fetal bovine serum. Differentiation was induced in two-day-postconfluent cells by supplementing the media with 1 μM insulin, 100 nM dexamethasone, and 500 μM isobutylmethylxanthine for 48 hours, followed by media supplemented with 1 μM insulin for another 48 hours, then normal media until differentiation day 10. Oxygen consumption was measured with a Rank Brothers oxygen electrode (Rank Brothers Ltd., Cambridge, UK). Cultured cells were trypsinized, counted in a hemocytometer, spun down, and resuspended in respiration buffer (PBS, 2% BSA, 4.5 g/l glucose, 120 mg/l sodium pyruvate) to 1E6/ml. Partial oxygen pressure was recorded using a Rank Brothers digital model 10 and a PowerLab 4/30 data acquisition system (ADInstruments, Colorado Springs, Colo.).

The test system of experiment [2] is 3T3-L1 adipocytes. The experiment is described as follows: Lipolysis in 3T3-L1 adipocytes (glycerol release). To be noted: cultured 3T3-L1 adipocytes (FIG. 13A). The method, then: 3T3-L1 were grown in Dulbecco's Modified Eagle's Medium (Gib-co/Invitrogen, Carlsbad, Calif., USA) with 4.5 g/l glucose and 10% fetal bovine serum. Differentiation was induced in two-day-postconfluent cells by supplementing the media with 1 μM insulin, 100 nM dexamethasone, and 500 μM isobutylmethylxanthine for 48 hours, followed by media supplemented with 1 μM insulin for another 48 hours, then normal media until differentiation day 10.
Fully differentiated 3T3-L1 adipocytes (day 10) in 48-well plates were washed, and 100 μl of KRH buffer with 3% BSA and 4 g/l D-glucose with or without 100 nM isoproterenol was added to each well. After 1 hour at 37° C./5% CO2 a 50 μl aliquot from each well was transferred to a 96-well plate; 50 μl of lipolysis assay buffer (Cayman Chemical) were added, and the plate was incubated at room temperature, protected from light, for 30 min. Absorption was measured at 540 nm. A standard curve was included on each plate to allow calculation of the glycerol concentration in the supernatants.

The subject of experiment [3] is 3T3-L1 adipocytes. The experiment is described as follows: Glucose uptake in 3T3-L1 adipocytes. The method, then: 3T3-L1 were grown in Dulbecco's Modified Eagle's Medium (Gib-co/Invitrogen, Carlsbad, Calif., USA) with 4.5 g/l glucose and 10% fetal bovine serum. Differentiation was induced in two-day-postconfluent cells by supplementing the media with 1 μM insulin, 100 nM dexamethasone, and 500 μM isobutylmethylxanthine for 48 hours, followed by media supplemented with 1 μM insulin for another 48 hours, then normal media until differentiation day 10. Fully differentiated 3T3-L1 adipocytes (day 10) in 48-well plates were serum-starved for 1 hour before incubation with Krebs-Ringer-HEPES (KRH) buffer with or without 10 nM insulin for 30 minutes, followed by addition of 1 mM, 100 nCi [3H]-2-deoxyglucose for 10 minutes. Uptake was stopped by lysing the cells with 0.1% sodium dodecyl sulfate (SDS). Lysates were transferred to liquid scintillation cocktail (Fisher […] 50% Plus) and counted in a Beckman LS counter.

For `CNC(=O)c1cccnc1` [N-methylnicotinamide], in experiment [1] (FIG. 12C), the “oxygen consumption in differentiated 3T3-L1 adipocytes” value is “increased”. In addition, the “oxygen consumption (FIG. 15A)” value in experiment [1] (text: cultured hepatoma cells, legend: 3T3-L1 adipocytes) is reported as “stimulated”. Moreover, the “lipolysis (glycerol released into the culture supernatant)” value in experiment [2] is reported as “increased”. Further, in experiment [3] (3T3-L1 adipocytes (FIG. 13B)), the insulin-dependent glucose uptake entry is on record as “stimulated”. Moreover, the basal glucose uptake entry in experiment [3] (no insulin (FIG. 15B)) is listed as “stimulated”. Besides, the “submaximally insulin-induced glucose uptake” value in experiment [3] (submax insulin (FIG. 15C)) is given as “stimulated”. Besides, in experiment [3] (submax insulin stimulation (FIG. 15C)), the “glucose uptake, co-administration with DFMO relative to DFMO alone” value is “increase”.
